Where a SMILES comes first, the peptide text is derived from it. Where no end group is shown, it is not given here. The star is where a group is joined. For = O=C*
Key:
Hs_FPR2 [1] = target: T1, Hs_FPR2 (Homo sapiens, UniProt P25090); experiment: Competition binding of fluorescent WKYMVm, flow cytometry; conditions: for Log IC50 (M): log of IC50, competition with 10 nM K(5/6-FAM)-WKYMVm, HEK293 stable cells, on ice 90 min; for Log IC50 (M) / Max Comp (%): mean, ND = no competition observed; for Max Comp (%): maximum proportion of competition with 10 nM K(5/6-FAM)-WKYMVm
T1 construct: expressed in transfected cells
T1 sequence (P25090 1-351): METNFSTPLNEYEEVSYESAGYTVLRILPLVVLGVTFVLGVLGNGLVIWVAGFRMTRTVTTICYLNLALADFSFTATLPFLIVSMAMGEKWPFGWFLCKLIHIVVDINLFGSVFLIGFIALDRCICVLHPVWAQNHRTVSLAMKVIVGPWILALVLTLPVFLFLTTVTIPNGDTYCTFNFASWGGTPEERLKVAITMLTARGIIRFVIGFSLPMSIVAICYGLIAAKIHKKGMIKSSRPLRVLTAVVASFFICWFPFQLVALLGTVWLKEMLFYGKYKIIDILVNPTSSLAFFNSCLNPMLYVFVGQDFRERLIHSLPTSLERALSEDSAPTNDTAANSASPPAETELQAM
Method: (§1) Mean cell fluorescence was then measured for 5000 cells by flow cytometry using either a BD FACScalibur or BD Attune.
(§2) All data were analyzed using GraphPad Prism using the nonlinear regression log(agonist) versus response (3 parameters) function for all assays, except binding, which was analyzed using the One site-FitlogIC50 function. Bias calculations were carried out following IUPHAR guidelines as described,[27]^,[37] and data were presented as the Δ Activity ratio (Log[EmaxB/EC50B])-(Log[EmaxA/EC50A]).

Mm_Fpr1 = target: T2, Mm_Fpr1 (Mus musculus, UniProt P33766); experiment: as above; conditions: for Log IC50 (M): log of IC50, competition with 10 nM K(5/6-FAM)-WKYMVm, HEK293 stable cells, on ice 90 min; for Log IC50 (M) / Max Comp (%): mean, ND = no competition observed; for Max Comp (%): maximum proportion of competition with 10 nM K(5/6-FAM)-WKYMVm
T2 construct: expressed in transfected cells
T2 sequence (P33766 1-364): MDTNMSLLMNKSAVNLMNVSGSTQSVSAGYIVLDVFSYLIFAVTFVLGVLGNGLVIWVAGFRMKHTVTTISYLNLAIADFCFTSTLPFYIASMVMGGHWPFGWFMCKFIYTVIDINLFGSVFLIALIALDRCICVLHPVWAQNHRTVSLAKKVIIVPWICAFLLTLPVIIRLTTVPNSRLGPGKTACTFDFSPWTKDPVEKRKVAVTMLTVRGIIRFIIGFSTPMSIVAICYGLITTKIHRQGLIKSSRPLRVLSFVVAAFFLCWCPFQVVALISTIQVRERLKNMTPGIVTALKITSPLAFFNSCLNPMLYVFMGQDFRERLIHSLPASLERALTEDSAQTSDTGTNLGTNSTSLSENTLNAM
Method: as §1, §2

Mm_Fpr2 [2] = target: T3, Mm_Fpr2 (Mus musculus, UniProt O88536); experiment: as above; conditions: for Log IC50 (M): log of IC50, competition with 10 nM K(5/6-FAM)-WKYMVm, HEK293 stable cells, on ice 90 min; for Log IC50 (M) / Max Comp (%): mean, ND = no competition observed; for Max Comp (%): maximum proportion of competition with 10 nM K(5/6-FAM)-WKYMVm
T3 construct: expressed in transfected cells
T3 sequence (O88536 1-351): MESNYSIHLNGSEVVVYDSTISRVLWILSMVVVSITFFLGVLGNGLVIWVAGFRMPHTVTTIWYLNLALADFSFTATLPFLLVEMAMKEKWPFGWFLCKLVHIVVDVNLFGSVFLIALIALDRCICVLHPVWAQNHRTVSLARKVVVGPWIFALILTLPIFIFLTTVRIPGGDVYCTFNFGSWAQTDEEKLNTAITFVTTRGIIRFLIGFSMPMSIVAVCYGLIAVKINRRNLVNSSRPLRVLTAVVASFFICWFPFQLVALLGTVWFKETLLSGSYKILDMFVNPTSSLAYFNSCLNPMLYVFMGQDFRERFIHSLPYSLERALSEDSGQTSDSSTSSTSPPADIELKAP
Method: as §1, §2

Hs_FPR1 [3] = target: T4, Hs_FPR1 (Homo sapiens, UniProt P21462); experiment: as above; conditions: for Log IC50 (M): log of IC50, competition with 10 nM K(5/6-FAM)-WKYMVm, HEK293 stable cells, on ice 90 min; for Log IC50 (M) / Max Comp (%): mean, ND = no competition observed; for Max Comp (%): maximum proportion of competition with 10 nM K(5/6-FAM)-WKYMVm
T4 construct: expressed in transfected cells
T4 sequence (P21462 1-350): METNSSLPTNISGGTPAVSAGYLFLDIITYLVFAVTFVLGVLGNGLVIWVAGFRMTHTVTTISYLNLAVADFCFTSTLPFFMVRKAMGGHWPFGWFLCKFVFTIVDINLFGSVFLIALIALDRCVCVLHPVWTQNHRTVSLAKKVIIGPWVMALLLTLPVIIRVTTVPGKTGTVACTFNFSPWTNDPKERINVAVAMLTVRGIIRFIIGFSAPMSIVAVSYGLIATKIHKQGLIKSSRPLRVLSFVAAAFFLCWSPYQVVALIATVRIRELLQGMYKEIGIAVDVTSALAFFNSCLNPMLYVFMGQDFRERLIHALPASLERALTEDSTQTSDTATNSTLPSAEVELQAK
Method: as §1, §2

Hs_FPR2 [4] = target: T1, Hs_FPR2; experiment: BRET receptor-RLuc8 interaction with Arrestin 3-YFP; type: cell-based; conditions: for Emax (%) / Log EC50 (M): Arrestin 3 BRET, mean, ND = no interaction detected; for Emax (%): % of response to 1 μM WKYMVm; for Log EC50 (M): log of EC50, HEK293 transient, 10 min
Outline: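 RLuc8-fused FPR donor with Venus-mGsi or YFP-Arrestin 3 acceptor (1:4), transient; replate 24 h, grow 24–48 h. HBSS 30 min, coelenterazine h 5 μM final 5 min pre-compound, then 10 min 37 °C.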

Hs_FPR2 [5] = target: T1, Hs_FPR2; experiment: ERK1/2 phosphorylation by Western blotting; type: cell-based; parameters: Emax: dose or concentration left out as unconfirmed; conditions: for Log EC50 (M) / EC50: log of EC50, phosphorylation of ERK1/2, HEK293 stable cells; for Log EC50 (M) / Emax (%) / EC50: mean, ND = no pERK signal detected; for Emax (%): phospho-ERK, % of 1 μM WKYMVm
Mm_Fpr2 [6] = target: T3, Mm_Fpr2; experiment: ERK1/2 phosphorylation by Western blotting; type: cell-based; parameters: Emax: dose or concentration left out as unconfirmed; conditions: for Log EC50 (M) / EC50: log of EC50, phosphorylation of ERK1/2, HEK293 stable cells; for Log EC50 (M) / Emax (%) / EC50: mean, ND = no pERK signal detected; for Emax (%): phospho-ERK, % of 1 μM WKYMVm
Hs_FPR1 [7] = target: T4, Hs_FPR1; experiment: ERK1/2 phosphorylation by Western blotting; type: cell-based; parameters: Emax: dose or concentration left out as unconfirmed; conditions: for Log EC50 (M) / EC50: log of EC50, phosphorylation of ERK1/2, HEK293 stable cells; for Log EC50 (M) / Emax (%) / EC50: mean, ND = no pERK signal detected; for Emax (%): phospho-ERK, % of 1 μM WKYMVm
[8] = test system: formyl peptide receptor family (Hs_FPR1, Hs_FPR2, Mm_Fpr1, Mm_Fpr2); experiment: Summary of main findings: receptor subtype selectivity and ligand bias across all readouts; parameters: species or system human and mouse; conditions: for Bias: summary grade of ligand bias relative to WKYMVm, key not given; for Notes: summary of main findings, in words
From the text: To determine ligand bias, a reference ligand is required, that is, “balanced” for the pathways tested.[37] […] We then used measurements of the activity ratio (Log (Emax/EC50)) for each receptor, ligand, and pathway in an attempt to observe any ligand bias (Fig. 6).

[9] = Hs_FPR2-Rluc8 donor, Arrestin 3-YFP acceptor, read-out: EC50 arrestin recruitment, BRET

Row | Molecule | Log IC50 (M) (Hs_FPR2 [1]) | Max Comp (%) (Hs_FPR2 [1]) | Log IC50 (M) (Mm_Fpr1) | Max Comp (%) (Mm_Fpr1) | Log IC50 (M) (Mm_Fpr2 [2]) | Max Comp (%) (Mm_Fpr2 [2]) | Log IC50 (M) (Hs_FPR1 [3]) | Max Comp (%) (Hs_FPR1 [3]) | Emax (%) (Hs_FPR2 [4]) | EC50 (Hs_FPR2 [4]; [9]) [nM] | Log EC50 (M) (Hs_FPR2 [4]) | Log EC50 (M) (Hs_FPR2 [5]) | Log EC50 (M) (Mm_Fpr2 [6]) | Log EC50 (M) (Hs_FPR1 [7]) | Bias [8] | Emax (Hs_FPR2 [4]) [%] | Emax (Hs_FPR2 [5]) [%] | Emax (Mm_Fpr2 [6]) [%] | Notes [8] | Emax (Hs_FPR1 [7]) [%] | also measured
1 | Cc1cccc(-c2oc(C)nc2C(=O)Nc2cnn(Cc3nc(C(C)(F)F)co3)n2)c1 [ACT-389949] | −7.434 | 94.77 | −7.070 | 25.96 | −7.192 | 80.31 | −5.265 | 80.70 | 73.56 | 18 | −7.74 | −7.723 | −8.394 | −7.37 | No | – | – | – | – | – | Emax (%) (Hs_FPR2 [5]): 81.57%; Emax (%) (Mm_Fpr2 [6]): 136.1%; Emax (%) (Hs_FPR1 [7]): 112.1%
2 | COc1cc(F)c([C@@H]2CNC(=O)[C@H]2NC(=O)Nc2ccccc2)c(F)c1 [BMS-986235] | – | 60.14 | – | 37.54 | – | 78.55 | – | – | – | 39.9 | – | – | – | – | + (Hs_FPR2) | 85.1 | 116 | 116 | Bias against internalization | – | IC50 (Hs_FPR2 [1]): 2440 nM; competition with K(5/6-FAM)-WKYMVm (Hs_FPR2 [1]; at 10 μM, incomplete competition): ~50%; IC50 (Mm_Fpr1): 1120 nM; IC50 (Mm_Fpr2 [2]): 72.6 nM; EC50 (Hs_FPR2 [5]): 679 nM; EC50 (Mm_Fpr2 [6]): 3.78 nM; EC50 (Hs_FPR1 [7]): 16200 nM
3 | CCCCOc1ccc(C(=O)NN2C(=O)c3ccccc3NC2c2ccc(OC)cc2)cc1 (centres unmarked) [QuinC1] | −7.399 | 13.23 | −6.114 | 52.13 | −7.98 | 27.99 | −7.943 | 9.96 | 40.71 | – | −5.82 | −5.882 | −4.94 | −5.86 | No | – | – | – | Partial/weak only | – | Emax (%) (Hs_FPR2 [5]): 101.7%; Emax (%) (Mm_Fpr2 [6]): 381.2%; Emax (%) (Hs_FPR1 [7]): 92.57%
4 | CSCC[C@H](NC(=O)[C@H](Cc1ccc(O)cc1)NC(=O)[C@H](CCCCN)NC(=O)[C@@H](N)Cc1c[nH]c2ccccc12)C(=O)N[C@H](C(=O)N[C@H](CCSC)C(N)=O)C(C)C [WKYMVm] | – | – | – | – | – | – | – | – | – | – | – | – | – | – | – | 102 | 93.8 | 118 | – | 104 | –
5 | CSCC[C@H](NC=O)C(=O)N[C@@H](CC(C)C)C(=O)N[C@@H](Cc1ccccc1)C(=O)N[C@@H](CCCCN)C(=O)O [fMLFK, fMet-Leu-Phe-Lys] (For-MLFK-OH) | – | 14.72 | – | 72.44 | – | 30.81 | – | 63.28 | – | – | – | – | – | – | – | 92.7 | 74.3 | 176 | – | 112 | IC50 (Hs_FPR2 [1]): 1.47 nM; IC50 (Mm_Fpr1): 8260 nM; IC50 (Mm_Fpr2 [2]): 828 nM; IC50 (Hs_FPR1 [3]): 586 nM; EC50 (Hs_FPR2 [4]; read-out: Log EC50 (converted)): 36300 nM; EC50 (Hs_FPR2 [5]): 1320 nM; EC50 (Mm_Fpr2 [6]): 1240 nM; EC50 (Hs_FPR1 [7]): 6.85 nM
6 | LESIFRSLLFRVM [MMK1] | −5.88 | 100 | – | – | – | – | −10.05 | 6.82 | – | – | −7.03 | −8.646 | −6.482 | −6.84 | No | 59.1 | 114 | 86.6 | Only activity at Hs_FPR2 | 40.1 | –

Source: article PMC12881670, “Investigation into ligand selectivity and bias at the formyl peptide receptor family” (The Journal of Pharmacology and Experimental Therapeutics, 2025)
